One data set has as its target MNK1 (Homo sapiens, UniProt Q9BUB5). In words: MNK1 substrate phosphorylation assay. It is filed as biochemical. The note with it: recombinant human kinase.
The target in the next data set is MNK2 (Homo sapiens, UniProt Q9HBH9). The experiment in a line: MNK2 substrate phosphorylation assay. The class given is biochemical. The note with it: recombinant human kinase.
Data set [1] concerns eIF4E phosphorylation at Serine 209 in the human embryonic kidney (HEK) 293 cell line. The experiment in a line: eIF4E phosphorylation in HEK 293 cells (fluorescent plate reader). It is filed as cell-based. To be noted: eIF4E phosphorylation at Serine 209, 2 hours exposure. The method, then: The ability of MNK inhibitors described herein to inhibit eIF4E phosphorylation at Serine 209 in the human embryonic kidney (HEK) 293 cell line was tested by exposing the cells to compound for 2 hours and then measuring eIF4E phosphorylation with a phosphorylation-specific antibody in a fluorescent plate reader. These experiments were done with HEK-293 cells plated on 96 well plates. Following treatment, cells were fixed with ice cold methanol for 10 min and then washed in 1× phosphate buffered saline (PBS) and the permeabilized with 0.02% Triton X-100 in 10% normal goat serum made up in PBS. Primary antibody was applied overnight at a concentration dilution of 1:2000 (p-eIF4E antibody from Cell Signaling ab76256). Following washing, cells were then exposed to secondary antibody conjugated to alexa-fluor 488 and then visualized on a Syngergy HTX plate reader. Fluorescence for p-eIF4E was measured and normalized to total DAPI fluorescence to determine the percentage of eIF4E phosphorylation in each well. Data were plotted in Graphpad Prism V8 to determine concentration-response effects and calculate IC50 values.

Another data set deals with P-gp (human MDR1, ABCB1). The experiment in a line: MDCK-MDR1 permeability (blood brain barrier permeability). The note with it: dog; for efflux ratio at 5 μM: MDCK-MDR1, 5 μM, read-out: Efflux ratio (ratio B-A/A-B); for Papp A→B at 5 μM: MDCK-MDR1, Apical to basolateral transport; for Papp A→B at 5 μM / Papp B→A at 5 μM: average of two experiments; for Papp B→A at 5 μM: MDCK-MDR1, Basolateral to apical transport. It is filed as in vitro ADME, Canine.

A short description of data set [2]: Liver microsome stability, rat. The class given is in vitro ADME. To be noted: Rat liver microsomes (#); for microsomal CLint: read-out: CLint rodent; for half-life: read-out: Rodent liver microsomes t1/2.
Data set [3] in a line: Liver microsome stability, human. The note with it: liver microsomes; for half-life: read-out: Human liver microsomes t1/2. It is filed as in vitro ADME.
The nature of data set [4]: Liver microsome stability, mouse. To be noted: mouse, liver microsomes, mouse liver microsomes, Table 11b; read-out: T1/2. It is filed as in vitro ADME.

Chain of MNK2 (Q9HBH9 whole entry): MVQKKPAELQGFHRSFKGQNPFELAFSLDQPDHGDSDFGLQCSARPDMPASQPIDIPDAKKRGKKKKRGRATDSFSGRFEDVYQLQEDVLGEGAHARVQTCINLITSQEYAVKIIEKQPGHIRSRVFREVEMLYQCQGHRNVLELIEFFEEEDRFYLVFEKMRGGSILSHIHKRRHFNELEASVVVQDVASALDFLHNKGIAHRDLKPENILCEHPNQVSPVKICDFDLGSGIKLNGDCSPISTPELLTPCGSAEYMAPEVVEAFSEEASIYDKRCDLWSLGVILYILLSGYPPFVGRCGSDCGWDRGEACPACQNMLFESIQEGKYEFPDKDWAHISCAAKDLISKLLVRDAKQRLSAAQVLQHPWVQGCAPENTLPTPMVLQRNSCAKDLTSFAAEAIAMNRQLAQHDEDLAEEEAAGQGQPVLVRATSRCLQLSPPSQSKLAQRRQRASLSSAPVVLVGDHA
Chain of MNK1 (Q9BUB5 whole entry): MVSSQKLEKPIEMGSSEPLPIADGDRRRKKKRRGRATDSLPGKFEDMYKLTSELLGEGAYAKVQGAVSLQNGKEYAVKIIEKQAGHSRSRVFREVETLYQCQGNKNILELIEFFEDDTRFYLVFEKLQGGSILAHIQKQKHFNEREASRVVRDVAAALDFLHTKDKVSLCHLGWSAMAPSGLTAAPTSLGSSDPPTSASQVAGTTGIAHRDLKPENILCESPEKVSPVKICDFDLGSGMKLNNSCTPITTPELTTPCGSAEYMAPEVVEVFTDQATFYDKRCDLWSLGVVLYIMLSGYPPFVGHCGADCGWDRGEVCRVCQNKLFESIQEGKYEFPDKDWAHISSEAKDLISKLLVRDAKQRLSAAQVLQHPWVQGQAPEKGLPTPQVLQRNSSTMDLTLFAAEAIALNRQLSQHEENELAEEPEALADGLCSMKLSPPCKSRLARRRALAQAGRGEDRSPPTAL

With `Cc1cc(Nc2cc(NCCN3CCOCC3)ncn2)c(=O)n2c1C(=O)NC2(C)C` [Compound 4ET-03-003], the half-inhibitory concentration (IC50) on MNK1 worked out at 80.2 nM; at MNK2 it was 22.6 nM; in data set [1] (Homo sapiens, HEK293, 2 h) it was 110 nM.

Take `Cc1cc(Nc2cc(NCCNS(C)(=O)=O)ncn2)c(=O)n2c1C(=O)NC21CCOCC1` [Compound 4ET-03-014]: the IC50 on MNK1 was 107 nM; at MNK2 it was 32.8 nM.

`Cc1cc(Nc2cc(NCCC(=O)O)ncn2)c(=O)n2c1C(=O)NC21CCCCC1` [Compound 4ET-02-006, 3-((6-((8′-Methyl-1′,5′-dioxo-1′,5′-dihydro-2′H-spiro[cyclohexane-1,3′-imidazo[1,5-a]pyridin]-6′-yl)amino)pyrimidin-4-yl)amino)propanoic acid]: the IC50 at MNK1 stood at 346 nM. Also, the concentration for half-maximal inhibition (IC50) on MNK2 amounted to 14.4 nM. In the data set on P-gp (human MDR1, ABCB1), the efflux ratio at 5 μM amounted to 0.8, the Papp A→B at 5 μM is 0.1 ×10⁻⁶ cm/s and the basolateral-to-apical permeability (Papp B→A) at 5 μM is 0.1 ×10⁻⁶ cm/s.

In the case of `Cc1cc(Nc2cc(NC(=O)C3CC3)ncn2)c(=O)n2c1C(=O)NC21CCCCC1` [Compound 4ET-02-003, N-(6-((8′-Methyl-1′,5′-dioxo-1′,5′-dihydro-2′H-spiro[cyclohexane-1,3′-imidazo[1,5-a]pyridin]-6′-yl)amino)pyrimidin-4-yl)cyclopropanecarboxamide], the IC50 turned out to be 140 nM at MNK1; 4.1 nM on MNK2; 1.4 nM in data set [1] (Homo sapiens, HEK293, 2 h). Further, the microsomal CLint in data set [2] turned out to be 3.75 µL/min/mg; in data set [3] it was 2.31 µL/min/mg. The results for the half-life in data set [2] and in data set [3] were 6.17 h and 9.98 h, respectively.

As for `Cc1cc(Nc2cc(NC(=O)C3CC3)ncn2)c(=O)n2c1C(=O)NC2(C)C` [Compound 4ET-03-002, N-(6-((3,3,8-Trimethyl-1,5-dioxo-1,2,3,5-tetrahydroimidazo[1,5-a]pyridin-6-yl)amino)pyrimidin-4-yl)cyclopropanecarboxamide], the IC50 turned out to be 133 nM on MNK1 and 5.3 nM in data set [1] (Homo sapiens, HEK293).

Take `Cc1cc(Nc2cc(NCCO)ncn2)c(=O)n2c1C(=O)NC2(C)C` [Compound 4ET-03-004]: the IC50 on MNK1 is 84.5 nM; at MNK2, 7.7 nM; in data set [1] (Homo sapiens, HEK293, 2 h), 86.6 nM.

Consider `Cc1cc(Nc2cc(NC(=O)C(C)C)ncn2)c(=O)n2c1C(=O)NC21CCOCC1` [Compound 4ET-03-008], for which the IC50 at MNK1 amounted to 65.5 nM; at MNK2, 7.4 nM; in data set [1] (Homo sapiens, HEK293, 2 h) it was 52.6 nM.

Regarding `Cc1cc(Nc2cc(NCCN3CCOCC3)ncn2)c(=O)n2c1C(=O)NC21CCOCC1` [Compound 4ET-03-010], the 50% inhibitory concentration (IC50) at MNK1 was determined as 382 nM; at MNK2, 84.8 nM; in data set [1] (Homo sapiens, HEK293, 2 h), 164 nM.

As to `Cc1cc(Nc2cc(N)ncn2)c(=O)n2c1C(=O)NC21Cc2ccccc2[C@@H]1F` (single isomer, unassigned) [Compound 4ET-01-010B, 6-((6-Aminopyrimidin-4-yl)amino)-1′-fluoro-8-methyl-1′,3′-dihydro-2H-spiro[imidazo[1,5-a]pyridine-3,2′-indene]-1,5-dione], the values for the IC50 (at MNK1; at MNK2; in data set [1]) were 348 nM, 96.6 nM and 71.3 nM, respectively.

Regarding `Cc1cc(Nc2cc(NCCNS(C)(=O)=O)ncn2)c(=O)n2c1C(=O)NC2(C)C` [Compound 4ET-03-012], the figures for the IC50 on MNK1 and at MNK2 were 441 nM and 273 nM, respectively.

On to `Cc1cc(Nc2cc(N)ncn2)c(=O)n2c1C(=O)NC21Cc2ccccc2[C@@H]1F` (single isomer, unassigned) [Compound 4ET-01-010A, 6-((6-Aminopyrimidin-4-yl)amino)-1′-fluoro-8-methyl-1′,3′-dihydro-2H-spiro[imidazo[1,5-a]pyridine-3,2′-indene]-1,5-dione], for which the IC50 on MNK1 turned out to be 73.4 nM. Further, the 50% inhibitory concentration (IC50) at MNK2 is 9.24 nM. Besides, the IC50 in data set [1] was determined as 35.4 nM. Besides, in the data set on P-gp (human MDR1, ABCB1), the efflux ratio at 5 μM was found to be 1.5, the apparent permeability from apical to basolateral (Papp A→B) at 5 μM was found to be 42.7 ×10⁻⁶ cm/s and the Papp B→A at 5 μM was 63.9 ×10⁻⁶ cm/s. The half-life in data set [4] is 1.92 h.

For the compound `Cc1cc(Nc2cc(NCCN3CCOCC3)ncn2)c(=O)n2c1C(=O)NC21CCCCC1` [Compound 4ET-02-005], the half-inhibitory concentration (IC50) on MNK1 worked out at 45.1 nM. The IC50 on MNK2 was determined as 10.4 nM. In data set [1] (Homo sapiens, HEK293, 2 h), the 50% inhibitory concentration (IC50) worked out at 22.5 nM. Further, in the data set with P-gp (human MDR1, ABCB1), the efflux ratio at 5 μM stood at 9.4, the apical-to-basolateral permeability (Papp A→B) at 5 μM stood at 4.5 ×10⁻⁶ cm/s and the Papp B→A at 5 μM is 42.2 ×10⁻⁶ cm/s. For the same compound, in data set [2], the microsomal CLint worked out at 13.6 µL/min/mg and the half-life was determined as 1.7 h. For the same compound, in data set [3], the microsomal CLint worked out at 5.64 µL/min/mg and the half-life came to 4.1 h.

`Cc1cc(Nc2cc(NCCO)ncn2)c(=O)n2c1C(=O)NC21CCOCC1` [Compound 4ET-03-011]: the 50% inhibitory concentration (IC50) on MNK1 stood at 203 nM; at MNK2, 27.8 nM; in data set [1] (Homo sapiens, HEK293, 2 h), 32.4 nM.

Regarding `CCC1=CC2(CCC1)NC(=O)c1c(C)cc(Nc3cc(NC(=O)C4CC4)ncn3)c(=O)n12` (stereo not drawn) [Compound 4ET-03-039, N-(6-((3-Ethyl-8′-methyl-1′,5′-dioxo-1′,5′-dihydro-2′H-spiro[cyclohexane-1,3′-imidazo[1,5-a]pyridin]-2-en-6′-yl)amino)pyrimidin-4-yl)cyclopropanecarboxamide], the concentration for half-maximal inhibition (IC50) on MNK1 stood at 31.6 nM; at MNK2 it was 1.62 nM; in data set [1] (Homo sapiens, HEK293, 2 h), 2.6 nM.

Regarding `Cc1cc(Nc2cc(NC(=O)C3CC3)ncn2)c(=O)n2c1C(=O)NC21Cc2ccccc2[C@@H]1O` (stereo in doubt) [Compound 4ET-03-063, N-(6-((1′-Hydroxy-8-methyl-1,5-dioxo-1,1′,3′,5-tetrahydro-2H-spiro[imidazo[1,5-a]pyridine-3,2′-inden]-6-yl)amino)pyrimidin-4-yl)cyclopropanecarboxamide], the half-inhibitory concentration (IC50) turned out to be 35 nM on MNK1; 3 nM on MNK2; 17 nM in data set [1] (Homo sapiens, HEK293, 2 h). For the same compound, the efflux ratio at 5 μM with P-gp (human MDR1, ABCB1) is 10.2. Further, in the data set with P-gp (human MDR1, ABCB1), the Papp A→B at 5 μM is 8.7 ×10⁻⁶ cm/s. Also, the Papp B→A at 5 μM with P-gp (human MDR1, ABCB1) amounted to 64.9 ×10⁻⁶ cm/s. Besides, the half-life in data set [4] was 3.7 h.

`Cc1cc(Nc2cc(NCCN3CCOCC3)ncn2)c(=O)n2c1C(=O)NC21CCCC1` [Compound 4ET-03-006, 8′-Methyl-6′-((6-((2-morpholinoethyl)amino)pyrimidin-4-yl)amino)-2′H-spiro[cyclopentane-1,3′-imidazo[1,5-a]pyridine]-1′,5′-dione]: the IC50 at MNK1 worked out at 64.6 nM; at MNK2, 5.9 nM; in data set [1] (Homo sapiens, HEK293, 2 h), 53 nM.

As to `Cc1cc(Nc2cc(NC(=O)C3CC3)ncn2)c(=O)n2c1C(=O)NC21CCOc2ccc(Cl)cc21` (stereo not drawn) [Compound 4ET-03-036], the half-maximal inhibitory concentration (IC50) on MNK1 is 118 nM; on MNK2 it was 5.65 nM; in data set [1] (Homo sapiens, HEK293, 2 h) it was 8.6 nM.

On to `Cc1cc(Nc2cc(NC(=O)C3CC3)ncn2)c(=O)n2c1C(=O)NC2(C)c1cccc(Cl)c1` (stereo not drawn) [Compound 4ET-03-035], for which the concentration for half-maximal inhibition (IC50) stood at 128 nM on MNK1; 4.3 nM at MNK2; 8.7 nM in data set [1] (Homo sapiens, HEK293, 2 h).

Turning to `Cc1cc(Nc2cc(N3CCN(CCN(C)C)CC3)ncn2)c(=O)n2c1C(=O)NC21CCCCC1` [Compound 4ET-02-002], the “MNK1 IC50” value at MNK1 is “inactive”. In addition, the “MNK2 IC50” value at MNK2 is “inactive”.

With `Cc1cc(Nc2cc(N)ncn2)c(=O)n2c1C(=O)NC21CCCC1` [Compound 4ET-01-001, 6′-((6-Aminopyrimidin-4-yl)amino)-8′-methyl-2′H-spiro[cyclopentane-1,3′-imidazo[1,5-a]pyridine]-1′,5′-dione], the IC50 in data set [1] (Homo sapiens, HEK293) worked out at 10.9 nM.

Consider `Cc1cc(Nc2cc(NC(=O)C(C)C)ncn2)c(=O)n2c1C(=O)NC2(C)C` [Compound 4ET-03-001], for which the IC50 at MNK1 amounted to 119 nM; on MNK2, 11.9 nM; in data set [1] (Homo sapiens, HEK293, 2 h), 47 nM.

`Cc1cc(Nc2cc(NCCO)ncn2)c(=O)n2c1C(=O)NC21CCCC1` [Compound 4ET-03-007, 6′-((6-((2-Hydroxyethyl)amino)pyrimidin-4-yl)amino)-8′-methyl-2′H-spiro[cyclopentane-1,3′-imidazo[1,5-a]pyridine]-1′,5′-dione]: the IC50 on MNK1 stood at 96.7 nM; on MNK2, 4.9 nM; in data set [1] (Homo sapiens, HEK293, 2 h), 10 nM. For the same compound, the efflux ratio at 5 μM in the data set with P-gp (human MDR1, ABCB1) is 6.3. In the data set with P-gp (human MDR1, ABCB1), this compound had a Papp A→B at 5 μM of 2.4 ×10⁻⁶ cm/s. In the data set with P-gp (human MDR1, ABCB1), this compound gave an apparent permeability from basolateral to apical (Papp B→A) at 5 μM of 15.1 ×10⁻⁶ cm/s.

With `Cc1cc(Nc2cc(NC(=O)C3CC3)ncn2)c(=O)n2c1C(=O)NC21Cc2ccc(Cl)cc2C1` (stereo not drawn) [Compound 4ET-03-054], the IC50 at MNK1 was 118 nM; on MNK2 it was 5.7 nM; in data set [1] (Homo sapiens, HEK293, 2 h), 8.6 nM.

These data come from patent US20230286983A1 (4E Therapeutics, Inc., priority 2020, published 2023).
